Experimental data published in paper PMC10780766, “From Bench to Bedside: Patient-Oriented Radiopharmaceutical Development in Nuclear Medicine Based on the Example of [^89Zr]Zr-PSMA-DFO” (Molecules, 2023).
Like-named read-outs stand apart in the source and are kept apart here.

Experiments:
[1] = Storage of iron-free precursor in aqueous solution, then labeling, cell binding and internalization; assay type: physicochemical; settings: storage at 5 °C in an aqueous solution for 6 months
Text: Such synthesis modules have been specifically designed to enable the versatile and efficient routine production of various radiopharmaceuticals while adhering to GMP requirements. The concept of disposable cassettes pursued in this approach allows the user to label different radionuclides on the same synthesis device without the risk of cross-contamination. The disposable cassettes include all necessary vessels, reagents, and purification columns. The automated process concludes with a final sterile filtration, including a filter integrity test. Iron removal should therefore take place before the actual labeling process. We wanted to verify whether it is possible to establish a stock of an iron-free PSMA-DFO precursor, stored in an aqueous solution at 4 °C in the refrigerator, and to determine its shelf life. This was done by investigating whether the iron-free precursor can be labeled with zirconium-89 after several months of storage without compromising the yield, cell binding, and internalization.

[2] = test system: PSMA binding sites (PSMA-positive LNCaP cell lines); parameters: method as in PMID 34370181; settings: LNCaP cells; cited from earlier work
[3] = test system: PSMA (prostate-specific membrane antigen) on prostate cancer cells; parameters: method as in PMID 34370181; settings: cited from earlier work
LNCaP tumor xenograft = test system: LNCaP tumor xenograft; parameters: method as in PMID 34370181; settings: LNCaP tumor xenografts, n = 5, cited from earlier work
[4] = test system: PSMA (prostate-specific membrane antigen) on prostate cancer cells; parameters: method as in PMID 34370181; settings: cited from earlier work; remark: listed apart in the source
[5] = parameters: method as in PMID 34370181; settings: up to 7 days at 37 °C; cited from earlier work
PSMA-positive lesions = test system: PSMA-positive lesions; parameters: method as in PMID 34326129; settings: cited from earlier work
LNCaP tumors = test system: LNCaP tumors; parameters: method as in PMID 34370181; settings: cited from earlier work

## CC(=O)N(O)CCCCCNC(=O)CCC(=O)N(O)CCCCCNC(=O)CCC(=O)N(O)CCCCCNC(=O)CCC(=O)NCC1CCC(C(=O)NC(Cc2ccc3ccccc3c2)C(=O)NCCCCC(NC(=O)NC(CCC(=O)O)C(=O)O)C(=O)O)CC1 (stereo not shown) [N-sucDFO-PSMA]
[1]
  Chemical reactivity, specific binding and internalization after storage: remained unaffected

## COc1nc(F)ccc1C(=O)NCCCCC(NC(=O)NC(CCC(=O)O)C(=O)O)C(=O)O (stereo not shown) [[^18F]F-JK-PSMA 7]
[2]
  Kd: 5.07 ± 0.45 nM

## COc1nc([18F])ccc1C(=O)NCCCCC(NC(=O)NC(CCC(=O)O)C(=O)O)C(=O)O (stereo not shown) [[^18F]F-JK-PSMA 7]
[3]; 0.5 h
  Specific binding as a percentage of the total cellular activity: 23.8 ± 0.6%
[3]; 1 h
  Specific binding as a percentage of the total cellular activity: 32.6 ± 0.4%
[3]; 2 h
  Specific binding as a percentage of the total cellular activity: 38.8 ± 1.3%
[3]; 3 h
  Specific binding as a percentage of the total cellular activity: 45.2 ± 1.9%
[3]; 5 h
  Specific binding as a percentage of the total cellular activity: 45.8 ± 0.4%
LNCaP tumor xenograft; 4 h after i.v. injection
  tumor/blood ratio: 175 ± 30
  tumor/muscle ratio: 114 ± 14
[2]
  Bmax: 2702 ± 61 fmol/10^6 Cells
[4]; 0.5 h
  Specific internalization as a percentage of the total cellular activity: 4.7 ± 0.4%
[4]; 1 h
  Specific internalization as a percentage of the total cellular activity: 11.1 ± 0.7%
[4]; 2 h
  Specific internalization as a percentage of the total cellular activity: 17.2 ± 1.3%
[4]; 3 h
  Specific internalization as a percentage of the total cellular activity: 20.8 ± 0.6%
[4]; 5 h
  Specific internalization as a percentage of the total cellular activity: 21.8 ± 0.3%

## O=C([O-])CN(CCN(CC(=O)[O-])Cc1cc(CCC(=O)NCCCCCC(=O)NCCCC[C@H](NC(=O)N[C@@H](CCC(=O)O)C(=O)O)C(=O)O)ccc1[O-])Cc1cc(CCC(=O)O)ccc1[O-].[68Ga+3].[OH3+] [[^68Ga]Ga-PSMA 11]
[3]; 0.5 h
  Specific binding as a percentage of the total cellular activity: 27.7 ± 0.7%
[3]; 1 h
  Specific binding as a percentage of the total cellular activity: 35.3 ± 3.1%
[3]; 2 h
  Specific binding as a percentage of the total cellular activity: 42.0 ± 1.2%
[3]; 3 h
  Specific binding as a percentage of the total cellular activity: 46.3 ± 2.1%
[3]; 5 h
  Specific binding as a percentage of the total cellular activity: 48.3 ± 1.2%
LNCaP tumor xenograft; 4 h after i.v. injection
  tumor/blood ratio: 112 ± 57
  tumor/muscle ratio: 58 ± 36
[2]
  Bmax: 1746 ± 53 fmol/10^6 Cells
  Kd: 5.15 ± 0.6 nM
[4]; 0.5 h
  Specific internalization as a percentage of the total cellular activity: 8.0 ± 0.4%
[4]; 1 h
  Specific internalization as a percentage of the total cellular activity: 14.0 ± 1.9%
[4]; 2 h
  Specific internalization as a percentage of the total cellular activity: 20.3 ± 1.5%
[4]; 3 h
  Specific internalization as a percentage of the total cellular activity: 23.3 ± 0.8%
[4]; 5 h
  Specific internalization as a percentage of the total cellular activity: 27.4 ± 1.6%

## CC(=O)N([O-])CCCCCNC(=O)CCC(=O)N([O-])CCCCCNC(=O)CCC(=O)N([O-])CCCCCNC(=O)CCC(=O)NCC1CCC(C(=O)NC(Cc2ccc3ccccc3c2)C(=O)NCCCCC(NC(=O)NC(CCC(=O)O)C(=O)O)C(=O)O)CC1.[89Zr+4] (stereo not shown) [[^89Zr]Zr-PSMA-DFO]
[5]
  Stability in human serum: very high stability
  Stability in phosphate-buffered saline (PBS): very high stability
PSMA-positive lesions
  Detected lesions whose validity was supported (histology, follow-up after radiation therapy, additional imaging): 14 out of 15
  Level of radioactivity in the 15 lesions (SUVmax) versus the original PET scans: significantly higher
PSMA-positive lesions; in 8 out of 14 patients
  Number of PSMA-positive lesions detected: 15
PSMA-positive lesions; patients with BCR and initially negative PET scans using the usual tracers
  Patients in whom PSMA-positive lesions were detected: 8 out of 14
[3]; 0.5 h
  Specific binding as a percentage of the total cellular activity: 29.1 ± 2.1%
[3]; 1 h
  Specific binding as a percentage of the total cellular activity: 38.5 ± 2.3%
[3]; 2 h
  Specific binding as a percentage of the total cellular activity: 46.5 ± 1.3%
[3]; 3 h
  Specific binding as a percentage of the total cellular activity: 48.8 ± 1.0%
[3]; 5 h
  Specific binding as a percentage of the total cellular activity: 49.4 ± 1.3%
LNCaP tumor xenograft; 24 h after i.v. injection
  tumor/blood ratio: 309 ± 89
  tumor/muscle ratio: 450 ± 38
[2]
  Bmax: 1428 ± 42 fmol/10^6 Cells
  Kd: 4.97 ± 0.57 nM
LNCaP tumors; PET scans up to 48 h after injection
  Tumor visualization at later time points: clear tumor visualization
LNCaP tumors; after 48 h, mice with LNCaP tumor xenografts
  Radioactive background radiation in the kidneys and bladder: minimal
LNCaP tumors; early time points (1 h after injection)
  Ability to visualize tumors compared with [68Ga]Ga-PSMA-11 or [18F]F-JK-PSMA-7: similar
[4]; 0.5 h
  Specific internalization as a percentage of the total cellular activity: 9.5 ± 0.6%
[4]; 1 h
  Specific internalization as a percentage of the total cellular activity: 15.3 ± 1.0%
[4]; 2 h
  Specific internalization as a percentage of the total cellular activity: 22.3 ± 1.0%
[4]; 3 h
  Specific internalization as a percentage of the total cellular activity: 24.4 ± 0.6%
[4]; 5 h
  Specific internalization as a percentage of the total cellular activity: 30.4 ± 1.3%

## [^177Lu]Lu-PSMA 617
[3]; 0.5 h
  Specific binding as a percentage of the total cellular activity: 16.0 ± 0.2%
[3]; 1 h
  Specific binding as a percentage of the total cellular activity: 19.7 ± 1.1%
[3]; 2 h
  Specific binding as a percentage of the total cellular activity: 30.4 ± 1.0%
[3]; 3 h
  Specific binding as a percentage of the total cellular activity: 35.5 ± 1.0%
[3]; 5 h
  Specific binding as a percentage of the total cellular activity: 40.7 ± 2.4%
[2]
  Bmax: 2021 ± 66 fmol/10^6 Cells
  Kd: 5.81 ± 0.71 nM
[4]; 0.5 h
  Specific internalization as a percentage of the total cellular activity: 4.1 ± 0.1%
[4]; 1 h
  Specific internalization as a percentage of the total cellular activity: 6.7 ± 0.1%
[4]; 2 h
  Specific internalization as a percentage of the total cellular activity: 12.8 ± 1.3%
[4]; 3 h
  Specific internalization as a percentage of the total cellular activity: 16.9 ± 0.2%
[4]; 5 h
  Specific internalization as a percentage of the total cellular activity: 22.9 ± 0.9%
